ChEMBL document CHEMBL1201862, “PubChem BioAssay data set” (2004)
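How tested: cells in 96-well plates exposed to compound for 48 hours at five concentrations. GI50 = concentration required for 50% inhibition of growth.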 Active and inactive are the calls of the source. Cut-off read from the data, not from the text of the source: active = GI50 up to about 1.1 µM and inactive = higher. Numbered stars: 1 amine (or outer) side, 2 acyl side, 3 side chain; on linkers, the order of the positions; unused ones are H or OH. Bridge positions count the residues as written; N and C are the ends. Square brackets hold non-standard residues; d marks the D form. Peptide text beside a SMILES is read from it. I, II: the chains in the order shown. Actinocin(9to1) = Cc1c2oc3c(C)ccc(C(=O)[*:1])c3nc-2c(C(=O)[*:2])c(N)c1=O; X48 = O=C1CC(C(=O)[*:2])N([*:1])C1; NMeV = CN[CH](C(=O)O)C(C)C; Sar = CNCC(=O)O

What was measured:
Experiment in all cases: inhibition of tumour cell growth, NCI panel, 48 h
NCI/ADR-RES = test system: NCI/ADR-RES
MDA-MB-231 = test system: MDA-MB-231
T47D = test system: T47D

OC(C/C(=N\N=C(/CC(O)(C(F)(F)F)C(F)(F)F)c1ccccc1)c1ccccc1)(C(F)(F)F)C(F)(F)F
GI50 (NCI/ADR-RES): > 10 µM (inactive) | GI50 (MDA-MB-231): > 10 µM (inactive) | GI50 (T47D): > 10 µM (inactive)

CCOC(=O)/C=C1/Nc2cc(F)c(F)cc2NC1=O
GI50 (NCI/ADR-RES): > 100 µM (inactive) | GI50 (MDA-MB-231): > 100 µM (inactive)

O=C(N/N=C/c1ccc([N+](=O)[O-])cc1)c1cccc2nc3ccccc3nc12
GI50 (NCI/ADR-RES): > 100 µM (inactive) | GI50 (MDA-MB-231): > 70.3 µM (inactive) | GI50 (T47D): > 100 µM (inactive)

CCN(CC)C(=O)Cn1c2c(c3ccccc31)CCCC2
GI50 (NCI/ADR-RES): 66.4 µM (inactive)

CC1=NC2(CCCCC2)N(Cl)C(=O)C1SC#N (configuration not stated)
GI50 (NCI/ADR-RES): 20.3 µM (inactive) | GI50 (MDA-MB-231): 17.6 µM (inactive) | GI50 (T47D): 21.6 µM (inactive)

O=C(NCCn1ccnn1)Nc1ccccc1
GI50 (NCI/ADR-RES): > 100 µM (inactive) | GI50 (MDA-MB-231): > 100 µM (inactive)

COc1ccc(/N=N/c2ccc3oc(=O)c(C(=O)Nc4ccc(Cl)cc4)cc3c2)cc1
GI50 (NCI/ADR-RES): 5.5 µM (inactive) | GI50 (MDA-MB-231): 6.25 µM (inactive) | GI50 (T47D): 6.76 µM (inactive)

CC(=O)/N=C1\NC(=O)/C(=C/c2ccccc2Cl)N1C
GI50 (NCI/ADR-RES): 43.2 µM (inactive) | GI50 (MDA-MB-231): > 100 µM (inactive)

Cc1nc2c(O)cc3c4c([nH]c3c2nc1C)C(=O)CCC4
GI50 (NCI/ADR-RES): 34.6 µM (inactive) | GI50 (MDA-MB-231): 7.45 µM (inactive)

COC(=O)[C@@]12CC3CN(Cc4c1[nH]c1ccccc41)C2CC3=O
GI50 (NCI/ADR-RES): > 100 µM (inactive) | GI50 (MDA-MB-231): > 100 µM (inactive) | GI50 (T47D): > 100 µM (inactive)

COC(=O)C1(SC)C2CCC3C2CCC31 (configuration not stated)
GI50 (NCI/ADR-RES): > 100 µM (inactive) | GI50 (MDA-MB-231): > 100 µM (inactive) | GI50 (T47D): > 100 µM (inactive)

CC1(C)OC[C@@H](C[C@H](O)COCc2ccccc2)O1
GI50 (NCI/ADR-RES): > 100 µM (inactive) | GI50 (MDA-MB-231): > 100 µM (inactive) | GI50 (T47D): > 100 µM (inactive)

CCOc1ccc(-n2nnc3c(N)nc(N)nc32)cc1
GI50 (NCI/ADR-RES): > 100 µM (inactive) | GI50 (MDA-MB-231): > 100 µM (inactive) | GI50 (T47D): > 100 µM (inactive)

CCOC(=O)C(NC(=O)c1ccccc1)(N1CCOCC1)C(F)(F)F (configuration not stated)
GI50 (NCI/ADR-RES): > 100 µM (inactive) | GI50 (MDA-MB-231): > 100 µM (inactive) | GI50 (T47D): > 100 µM (inactive)

CCn1c(SCC(=O)NNC(=S)Nc2ccc(Cl)cc2)nc2ccccc2c1=O
GI50 (NCI/ADR-RES): 47.1 µM (inactive) | GI50 (MDA-MB-231): > 100 µM (inactive) | GI50 (T47D): 35.8 µM (inactive)

C1=C[C@@H]2c3ccc4cnccc4c3NC[C@@H]2C1
GI50 (NCI/ADR-RES): > 100 µM (inactive) | GI50 (T47D): > 100 µM (inactive)

O=S(=O)(O)c1ccc2c(/N=N\c3ccc(F)cc3)c(O)c(S(=O)(=O)O)cc2c1
GI50 (NCI/ADR-RES): > 100 µM (inactive) | GI50 (MDA-MB-231): > 100 µM (inactive) | GI50 (T47D): > 100 µM (inactive)

O=C1C=C(Nc2ccc(Br)cc2)c2ccccc2/C1=N/O
GI50 (NCI/ADR-RES): 8.67 µM (inactive) | GI50 (MDA-MB-231): 9.75 µM (inactive) | GI50 (T47D): 13.6 µM (inactive)

C=C1C(=O)OC2CC1C(OC(=O)/C=C/c1ccccc1)C/C(C)=C/CC/C(C)=C/CCC2(C)O (configuration not stated)
GI50 (NCI/ADR-RES): 1.74 µM (inactive) | GI50 (MDA-MB-231): 1.66 µM (inactive) | GI50 (T47D): 3.47 µM (inactive)

COc1ccc(OC)c([N+](=O)[O-])c1-c1nc2sccn2c1/C=N/N=C(N)N
GI50 (NCI/ADR-RES): > 100 µM (inactive) | GI50 (MDA-MB-231): 48.6 µM (inactive) | GI50 (T47D): 66.1 µM (inactive)

NC(Cc1ccc(S(=O)(=O)O)cc1)C(=O)NC(Cc1ccc(S(=O)(=O)O)cc1)C(=O)O (configuration not stated)
GI50 (NCI/ADR-RES): > 100 µM (inactive) | GI50 (MDA-MB-231): > 100 µM (inactive) | GI50 (T47D): > 100 µM (inactive)

Cc1ccccc1[P+](C)(c1ccccc1C)c1ccccc1C
GI50 (NCI/ADR-RES): 25.5 µM (inactive) | GI50 (MDA-MB-231): 12.6 µM (inactive) | GI50 (T47D): 3.06 µM (inactive)

Nc1nc(Cl)cc(OCC2(CO)CCCC2)n1
GI50 (NCI/ADR-RES): > 100 µM (inactive)

Cc1cc(O)c2c(c1)CC(O)C1=C2C(=O)c2c(O)ccc(OC3CC(O)C(OC4CC(OC5CCC(O)C(C)O5)C(O)C(C)O4)C(C)O3)c2C1=O (configuration not stated)
GI50 (NCI/ADR-RES): 2.93 µM (inactive) | GI50 (MDA-MB-231): 1.77 µM (inactive) | GI50 (T47D): 2.15 µM (inactive)

CC(C)(C)OC(=O)Nc1cc(-c2ccccc2)co1
GI50 (NCI/ADR-RES): > 100 µM (inactive) | GI50 (MDA-MB-231): 68.7 µM (inactive) | GI50 (T47D): 38.4 µM (inactive)

O=c1oc(-c2ccccc2)c(-c2ccccc2)n1-c1ccc(Br)cc1
GI50 (MDA-MB-231): 27.7 µM (inactive) | GI50 (T47D): 29.4 µM (inactive)

O=C1NCN(c2ccccc2)C12CCN(CCc1ccc3[nH]c(=S)[nH]c3c1)CC2
GI50 (NCI/ADR-RES): > 100 µM (inactive) | GI50 (MDA-MB-231): 19.5 µM (inactive) | GI50 (T47D): 16.4 µM (inactive)

O=C1CSC2(CC(/C=C/c3ccccc3[N+](=O)[O-])=NN2c2cccc(S(=O)(=O)O)c2)N1c1nc2ccccc2s1 (configuration not stated)
GI50 (NCI/ADR-RES): 21.5 µM (inactive) | GI50 (MDA-MB-231): 15.9 µM (inactive) | GI50 (T47D): 12.8 µM (inactive)

Clc1cc(OC2C3CC4CC(C3)CC2C4)nc(Cl)n1 (configuration not stated)
GI50 (NCI/ADR-RES): 31.7 µM (inactive) | GI50 (MDA-MB-231): 13.7 µM (inactive) | GI50 (T47D): 20.1 µM (inactive)

COc1cnc2oc3ccc(O)cc3c2c1-c1ccccc1
GI50 (NCI/ADR-RES): 30.3 µM (inactive) | GI50 (T47D): 3.65 µM (inactive)

CC(C)(C)OC(=O)N(O)CCCn1cnc2c(N)ncnc21
GI50 (NCI/ADR-RES): > 100 µM (inactive) | GI50 (MDA-MB-231): > 100 µM (inactive) | GI50 (T47D): > 100 µM (inactive)

Cc1nc2ccc(S(=O)(=O)Nc3ccc(Cl)cc3)cc2c(=O)n1NC(=O)CNc1ccc(Cl)cc1
GI50 (NCI/ADR-RES): > 100 µM (inactive) | GI50 (MDA-MB-231): > 100 µM (inactive)

O=C(CCN1CCCCC1)c1csc2ccccc12
GI50 (NCI/ADR-RES): > 100 µM (inactive) | GI50 (MDA-MB-231): > 100 µM (inactive) | GI50 (T47D): 45.7 µM (inactive)

O=C1C(=Cc2ccc(O)cc2)N=C(c2ccccc2)N1n1c(-c2ccccc2)nc2ccccc2c1=O
GI50 (MDA-MB-231): 76.9 µM (inactive) | GI50 (T47D): 49.8 µM (inactive)

Cc1cc(S(=O)(=O)Nc2nc(N)n(-c3ccccn3)n2)c(S)cc1Cl
GI50 (NCI/ADR-RES): > 100 µM (inactive) | GI50 (MDA-MB-231): > 100 µM (inactive) | GI50 (T47D): > 100 µM (inactive)

NCCCN(CCCCN(CCCN)CCCc1ccccc1)CCCc1ccccc1
GI50 (NCI/ADR-RES): 20.1 µM (inactive) | GI50 (MDA-MB-231): 2.02 µM (inactive) | GI50 (T47D): 6.84 µM (inactive)

COc1cc(Cc2cnc(N)nc2N)cc(OC)c1OCCCNc1ccc([N+](=O)[O-])cc1
GI50 (NCI/ADR-RES): 18.6 µM (inactive) | GI50 (MDA-MB-231): 12.9 µM (inactive) | GI50 (T47D): 8.07 µM (inactive)

CC(=O)C1=CN=C2C(=O)N(c3ccccc3)N(C)C12C (configuration not stated)
GI50 (NCI/ADR-RES): 55.1 µM (inactive) | GI50 (MDA-MB-231): > 100 µM (inactive)

CC(=O)c1ccc(-c2oc(-c3ccccc3)cc2-c2ccc3c(c2)OCO3)s1
GI50 (NCI/ADR-RES): 49.7 µM (inactive) | GI50 (T47D): 17 µM (inactive)

CCN(CC)CCNC(=O)c1cn2c(ccc3sc4ccccc4c(=O)c32)n1
GI50 (NCI/ADR-RES): 11.2 µM (inactive) | GI50 (MDA-MB-231): 8.95 µM (inactive) | GI50 (T47D): 14.5 µM (inactive)

O=C(c1cc(Cl)ccc1Cl)N1CCN(C(=O)c2cc(Cl)ccc2Cl)CC1
GI50 (MDA-MB-231): > 100 µM (inactive) | GI50 (T47D): 48.8 µM (inactive)

CC1CC[C@@]2(OC1)OC1C[C@H]3[C@@H]4C/C(=N\N(C)C)[C@@]5(O)CC(O)CC[C@]5(C)[C@H]4CC[C@]3(C)C1[C@@H]2C (some centres not stated)
GI50 (NCI/ADR-RES): 49.4 µM (inactive) | GI50 (MDA-MB-231): 52.1 µM (inactive) | GI50 (T47D): 31.5 µM (inactive)

Cc1c2oc3c(C)ccc(C(=O)NC4C(=O)NC(C(C)C)C(=O)N5CC(=O)CC5C(=O)N(C)CC(=O)N(C)C(C(C)C)C(=O)OC4C)c3nc-2c(C(=O)NC2C(=O)NC(C(C)C)C(=O)N3CC(=O)CC3C(=O)N(C)CC(=O)N(C)C(C(C)C)C(=O)OC2C)c(N)c1=O (configuration not stated) (I: TV[X48][Sar][NMeV] / II: TV[X48][Sar][NMeV]; ester I:1-I:C, II:1-II:C; linker I:N-II:N via Actinocin(9to1); configuration not given here)
GI50 (NCI/ADR-RES): > 1 µM (active) | GI50 (MDA-MB-231): > 1 µM (active) | GI50 (T47D): > 1 µM (active)

OCCc1ccsc1-c1sc(-c2cc(CCO)c(-c3sccc3CCO)s2)cc1CCO
GI50 (NCI/ADR-RES): 20.2 µM (inactive) | GI50 (MDA-MB-231): 12.2 µM (inactive)

Cc1nn(C(=O)Cc2ccccc2)c2c1C(c1ccc(O)cc1)SC(=N)N2 (configuration not stated)
GI50 (MDA-MB-231): > 100 µM (inactive) | GI50 (T47D): > 100 µM (inactive)
